Assay results taken from patent US20230017539A1, “TRI-HETEROCYCLIC COMPOUND AS JAK INHIBITOR, AND USE THEREOF” (CHIA TAI TIANQING PHARMACEUTICAL GROUP CO., LTD., priority 2019, published 2023).

Columns and labels:
[1] = tested on: adjuvant-induced arthritis (AIA); test: In vivo efficacy study of adjuvant-induced arthritis (AIA) in rats; set-up: species or system female Lewis rats; settings: for Inhibition rate of area under clinical score curve, AUC (%): two weeks, rat AIA
Method: Experimental procedures: the compounds of the present application were tested for their therapeutic effect on arthritis using a rat adjuvant arthritis model. Female Lewis rats weighing 160-180 g were anesthetized with isoflurane and injected with 0.1 mL of Mycobacterium tuberculosis suspension subcutaneously in the left hind paw. 13 days after the modeling, the rats were divided into groups and given corresponding test compounds. For example, the female Lewis rats were orally administered different doses (see Table 3-2 for specific doses) of a solution of test compound 1A in a mixed solvent [5% DMSO, 95% (12% SBE-β-CD)] twice a day (10 test animals in each dose group). During two consecutive weeks of administration, the states of the rats were observed, and the foot volume swellings were recorded and scored.

JAK3(h) = target: T1, JAK3(h) (Homo sapiens, UniProt P52333); test: In vitro activity assay of JAK3 kinase (radiometric, [γ-33P]-ATP); format: biochemical; settings: recombinant human JAK3, 40 min at room temperature
T1 construct: purchased Eurofins, UK
T1 sequence (P52333 1-1124): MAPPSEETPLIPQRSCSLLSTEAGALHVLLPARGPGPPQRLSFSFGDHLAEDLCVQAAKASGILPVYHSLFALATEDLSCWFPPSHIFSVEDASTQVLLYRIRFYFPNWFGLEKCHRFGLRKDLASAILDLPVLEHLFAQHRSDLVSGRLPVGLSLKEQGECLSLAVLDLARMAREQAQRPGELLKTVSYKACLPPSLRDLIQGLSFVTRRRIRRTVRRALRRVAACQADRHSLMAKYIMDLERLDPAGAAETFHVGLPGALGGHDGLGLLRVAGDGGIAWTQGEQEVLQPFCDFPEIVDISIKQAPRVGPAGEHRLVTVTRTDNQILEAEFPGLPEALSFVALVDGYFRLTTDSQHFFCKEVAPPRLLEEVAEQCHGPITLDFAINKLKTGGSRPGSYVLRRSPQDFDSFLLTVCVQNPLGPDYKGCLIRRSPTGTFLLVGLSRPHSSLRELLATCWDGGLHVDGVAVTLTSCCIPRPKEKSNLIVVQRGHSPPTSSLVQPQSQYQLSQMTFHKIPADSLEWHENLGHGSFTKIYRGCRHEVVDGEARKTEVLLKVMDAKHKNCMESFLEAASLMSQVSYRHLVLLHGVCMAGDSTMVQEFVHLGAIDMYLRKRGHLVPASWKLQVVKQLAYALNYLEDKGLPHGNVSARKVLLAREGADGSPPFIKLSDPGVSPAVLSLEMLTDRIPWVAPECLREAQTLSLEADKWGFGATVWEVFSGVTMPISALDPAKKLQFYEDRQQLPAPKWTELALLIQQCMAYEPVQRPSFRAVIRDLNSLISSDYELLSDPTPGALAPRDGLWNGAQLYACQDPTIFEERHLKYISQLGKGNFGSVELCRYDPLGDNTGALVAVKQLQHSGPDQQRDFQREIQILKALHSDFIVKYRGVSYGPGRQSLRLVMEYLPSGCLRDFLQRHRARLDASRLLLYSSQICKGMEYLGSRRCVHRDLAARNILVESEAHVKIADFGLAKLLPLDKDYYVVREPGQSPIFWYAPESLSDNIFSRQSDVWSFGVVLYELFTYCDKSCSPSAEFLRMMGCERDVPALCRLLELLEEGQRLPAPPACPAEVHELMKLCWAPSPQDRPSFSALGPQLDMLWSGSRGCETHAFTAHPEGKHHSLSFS
Method: Recombinant human JAK1, JAK2, JAK3 and Tyk2 […], and main instruments and reagents were all provided by Eurofins, UK.
Dilution of JAK2, JAK3 and TYK2: 20 mM 3-(N-morpholino)propanesulfonic acid (MOPS), 1 mM EDTA, 0.01% Brij-35.5% glycerol, 0.1% β-mercaptoethanol, and 1 mg/mL BSA; dilution of JAK1: 20 mM TRIS, 0.2 mM EDTA, 0.1% β-mercaptoethanol, and 0.01% Brij-35.5% glycerol. All compounds were prepared as 100% DMSO solutions, and the concentration was brought to 50 times the final assay concentration. A test compound was diluted with a 3-fold gradient, with a total of 9 final concentrations ranging from 10 μM to […]. The DMSO content in the assay reaction was 2%. The working stock solution of the compound was added into the assay wells as a first component of the reaction, and the remaining components were then added according to the protocol detailed for the assay below.
JAK3(h) was incubated with 8 mM MOPS pH 7.0, 0.2 mM EDTA, 500 μM GGEEEEYFELVKKKK (SEQ ID NO: 3), 10 mM magnesium acetate and [γ-^33P]-ATP (the activity and concentration were tailored as required). The reaction was started by adding a Mg/ATP mixture, and terminated by adding 0.5% phosphoric acid after 40 min of incubation at room temperature. 10 μL of the reactant was then dotted on a P30 filter pad, washed three times with 0.425% phosphoric acid and once with methanol within 4 minutes, and dried, and scintillation counting was performed.
The IC50 results were obtained by analysis using XLFITS (formula 205) of IDBS company and detailed in Table 1.

[2] = tested on: collagen-induced arthritis (CIA); test: In vivo efficacy study of collagen-induced arthritis (CIA) in rats; set-up: species or system Lewis rats
Method: [table] The compounds of the present application were tested for their therapeutic effect on arthritis using a rat collagen-induced arthritis model. Lewis rats were immunized. The day of the first immunization was recorded as day 0, and the subsequent days were recorded in order. The Lewis rats were anesthetized with isoflurane and injected with 50 μL of prepared collagen emulsion (containing 200 μg of CII) subcutaneously in the tail (2-3 cm away from the base of the tail). On day 21, the same volume of the collagen emulsion was injected in the tail in the same manner. Rats in the normal group were not immunized. On day 27 of the modeling, the rats were divided into groups and administered corresponding test compounds. For example, the female Lewis rats were orally administered different doses (see Table 4-1 for specific doses) of a solution of test compound 4 in a mixed solvent [0.5% HPMC E5/0.5% PVP K30/0.2% SLS in water] twice a day (8 test animals in each dose group). During 14 consecutive days of administration, the states of the rats were observed, and the foot volume swellings were recorded and scored.

N#Cc1cc2n(n1)CC(n1cnc3cnc4[nH]ccc4c31)CC2 (single isomer, unassigned) [Compound 1A]
Inhibition rate of area under clinical score curve, AUC (%) ([1]; 3 mg/kg oral twice a day): 49.8% | Mean arthritis clinical score, peak ([1]; 10 mg/kg group, day 13 (day of grouping, start of dosing)): 5.8 | Mean arthritis clinical score at the experimental endpoint ([1]; 10 mg/kg group, day 27): 1.3 | Inhibition rate of area under clinical score curve, AUC (%) ([1]; 10 mg/kg oral twice a day): 60.3% | Effect on the downward trend of the weight in animals caused by the disease attack ([1]; 3 and 10 mg/kg groups, significant difference from solvent control from day 20): significant relieving effect on the downward trend of the weight | Effect on increase in arthritis clinical score and foot volume ([1]; 3 and 10 mg/kg oral twice a day, dose-dependent): inhibited the increase in arthritis clinical score and foot volume | IC50 (JAK3(h)): 30.8 nM

COc1nc2cnc3[nH]ccc3c2n1[C@@H]1CCc2cc(C#N)nn2C1 [Compound 4]
IC50 (JAK3(h)): 27.3 nM | Clinical score (on day 14 of administration) Mean ± SEM ([2]; 1 mg/kg oral BID, rat CIA): 0.38 ± 0.16 | Foot volume (mL, on day 14 of administration) Mean ± SEM ([2]; 1 mg/kg oral BID, rat CIA): 1.32 ± 0.04 mL | Body weight recovery ([2]; 3 mg/kg BID, end of administration at day 14): recovers to the level in the normal group | Foot volume (mL, on day 14 of administration) Mean ± SEM ([2]; 3 mg/kg oral BID, rat CIA): 1.28 mL | Degree of the foot volume swelling ([2]; BID at 1 and 3 mg/kg): reduced in a dose-dependent manner | Effect on clinical scores of the arthritic rats ([2]; BID at 1 and 3 mg/kg, significant difference from solvent control): reduces the clinical scores of the arthritic rats in a dose-dependent manner
